Results reported in patent US10167262B2, “Herbicidal substituted 3-arylpyrazoles” (FMC CORPORATION, priority 2014, dated 2019).
Like-named read-outs stand apart in the source and are kept apart here.

What was measured:
Assay type in all cases: in vivo
[1] = test system: barnyardgrass (Echinochloa crus-galli); test: Test A pre-/postemergence greenhouse herbicide test, visual injury rating 0-100; settings: 1000 g ai/ha; for pest or weed control at 1000 g/ha: Echinochloa crus-galli, 240 h, read-out: Plant response rating (0 to 100 scale), Barnyardgrass
Outline: (§1)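 Formulated in non-phytotoxic solvent with surfactant, compounds were applied pre- and postemergence simultaneously. Soil: loam–sand blend. Visual injury, 0 = no effect to 100 = complete control, ~10 days.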

[2] = test system: corn (Zea mays); test: as above; settings: 1000 g ai/ha; for plant injury at 1000 g/ha: Zea mays, 240 h, read-out: Plant response rating (0 to 100 scale), Corn
Outline: as §1

[3] = test system: giant foxtail (Setaria faberii); test: as above; settings: 1000 g ai/ha; for pest or weed control at 1000 g/ha: Setaria faberi, 240 h, read-out: Plant response rating (0 to 100 scale), Foxtail, Giant
Outline: as §1

[4] = test system: large (Lg) crabgrass (Digitaria sanguinalis); test: as above; settings: 1000 g ai/ha; for pest or weed control at 1000 g/ha: Digitaria sanguinalis, 240 h, read-out: Plant response rating (0 to 100 scale), Crabgrass, Large
Outline: as §1

[5] = test system: morningglory (Ipomoea spp.); test: as above; settings: 1000 g ai/ha; for pest or weed control at 1000 g/ha: Ipomoea, 240 h, read-out: Plant response rating (0 to 100 scale), Morningglory
Outline: as §1

[6] = test system: pigweed (Amaranthus retroflexus); test: as above; settings: 1000 g ai/ha; for pest or weed control at 1000 g/ha: Amaranthus retroflexus, 240 h, read-out: Plant response rating (0 to 100 scale), Pigweed
Outline: as §1

[7] = test system: velvetleaf (Abutilon theophrasti); test: as above; settings: 1000 g ai/ha; for pest or weed control at 1000 g/ha: Abutilon theophrasti, 240 h, read-out: Plant response rating (0 to 100 scale), Velvetleaf
Outline: as §1

[8] = test system: wheat (Triticum aestivum); test: as above; settings: 1000 g ai/ha; for plant injury at 1000 g/ha: Triticum aestivum, 240 h, read-out: Plant response rating (0 to 100 scale), Wheat
Outline: as §1

[9] = test system: Italian ryegrass (Lolium multiflorum); test: Test C pre-/postemergence greenhouse test, plant response rating 0-100; settings: Postemergence; for Plant response rating, Ryegrass, Italian: scale 0 to 100
Outline: (§2)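 Visual rating vs controls after 13–15 d greenhouse; 0 = no effect, 100 = complete control. Pre: seeds in loam/sand, treated at planting. Post: seedlings 2–18 cm (1–4 leaf) in peat-based mix. Compounds in surfactant-containing non-phytotoxic solvent.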

[10] = test system: corn (Zea mays); test: as above; settings: Postemergence; for Plant response rating, Corn: scale 0 to 100
Outline: as §2

[11] = test system: pigweed (Amaranthus retroflexus); test: as above; settings: Postemergence; for Plant response rating, Pigweed: scale 0 to 100
Outline: as §2

[12] = test system: ragweed (common ragweed, Ambrosia elatior); test: as above; settings: Postemergence; for Plant response rating, Ragweed: scale 0 to 100
Outline: as §2

[13] = test system: velvetleaf (Abutilon theophrasti); test: as above; settings: Postemergence; for Plant response rating, Velvetleaf: scale 0 to 100
Outline: as §2

CCn1cc(C(=O)c2ccccc2)c(-c2cc(Cl)cc(Cl)c2)n1 [Compound 31, [3-(3,5-dichlorophenyl)-1-ethyl-1H-pyrazol-4-yl]phenylmethanone]
pest or weed control at 1000 g/ha ([1]; post-emergence, Postemergence): 20% | pest or weed control at 1000 g/ha ([1]; pre-emergence, Preemergence): 0% | plant injury at 1000 g/ha ([2]; post-emergence, Postemergence): 10% | plant injury at 1000 g/ha ([2]; pre-emergence, Preemergence): 0% | pest or weed control at 1000 g/ha ([3]; post-emergence, Postemergence): 0% | pest or weed control at 1000 g/ha ([3]; pre-emergence, Preemergence): 0% | pest or weed control at 1000 g/ha ([4]; post-emergence, Postemergence): 0% | pest or weed control at 1000 g/ha ([4]; pre-emergence, Preemergence): 0% | pest or weed control at 1000 g/ha ([5]; post-emergence, Postemergence): 0% | pest or weed control at 1000 g/ha ([5]; pre-emergence, Preemergence): 0% | pest or weed control at 1000 g/ha ([6]; post-emergence, Postemergence): 100% | pest or weed control at 1000 g/ha ([6]; pre-emergence, Preemergence): 100% | pest or weed control at 1000 g/ha ([7]; post-emergence, Postemergence): 90% | pest or weed control at 1000 g/ha ([7]; pre-emergence, Preemergence): 70% | plant injury at 1000 g/ha ([8]; post-emergence, Postemergence): 0% | plant injury at 1000 g/ha ([8]; pre-emergence, Preemergence): 0% | pest or weed control at 16 g/ha ([9]; Lolium multiflorum, post-emergence, 16 g ai/ha): 0% | pest or weed control at 62 g/ha ([9]; Lolium multiflorum, post-emergence, 62 g ai/ha, read-out: Plant response rating (0 to 100), Ryegrass, Italian): 0% | pest or weed control at 125 g/ha ([9]; Lolium multiflorum, post-emergence, 125 g ai/ha, read-out: Plant response rating (0 to 100), Ryegrass, Italian): 0% | Corn plant response rating (crop injury, 0 = no effect, 100 = complete kill) at 16 g/ha ([10]; Zea mays, post-emergence, 16 g ai/ha): 0% | plant injury at 31 g/ha ([10]; Zea mays, post-emergence, 31 g ai/ha): 0% | plant injury at 62 g/ha ([10]; Zea mays, post-emergence, 62 g ai/ha): 0% | plant injury at 125 g/ha ([10]; Zea mays, post-emergence, 125 g ai/ha): 0% | pest or weed control at 16 g/ha ([11]; Amaranthus retroflexus, post-emergence, 16 g ai/ha): 20% | pest or weed control at 125 g/ha ([11]; Amaranthus retroflexus, post-emergence, 125 g ai/ha, read-out: Plant response rating (0 to 100), Pigweed): 75% | pest or weed control at 16 g/ha ([12]; Ambrosia artemisiifolia, post-emergence, 16 g ai/ha): 0% | pest or weed control at 62 g/ha ([12]; Ambrosia artemisiifolia, post-emergence, 62 g ai/ha, read-out: Plant response rating (0 to 100), Ragweed): 0% | pest or weed control at 125 g/ha ([12]; Ambrosia artemisiifolia, post-emergence, 125 g ai/ha, read-out: Plant response rating (0 to 100), Ragweed): 5% | pest or weed control at 16 g/ha ([13]; Abutilon theophrasti, post-emergence, 16 g ai/ha): 50% | pest or weed control at 62 g/ha ([13]; Abutilon theophrasti, post-emergence, 62 g ai/ha, read-out: Plant response rating (0 to 100), Velvetleaf): 75% | pest or weed control at 125 g/ha ([13]; Abutilon theophrasti, post-emergence, 125 g ai/ha, read-out: Plant response rating (0 to 100), Velvetleaf): 80%

Fc1ccc(NN=C(c2ccccc2)c2c[nH]nc2-c2cc(Cl)cc(Cl)c2)cc1 [Compound 35]
Plant response rating (0 to 100 scale), Barnyardgrass ([1]; Postemergence): 0 | Plant response rating (0 to 100 scale), Barnyardgrass ([1]; Preemergence): 0 | Plant response rating (0 to 100 scale), Corn ([2]; Postemergence): 0 | Plant response rating (0 to 100 scale), Corn ([2]; Preemergence): 0 | Plant response rating (0 to 100 scale), Foxtail, Giant ([3]; Postemergence): 0 | Plant response rating (0 to 100 scale), Foxtail, Giant ([3]; Preemergence): 0 | Plant response rating (0 to 100 scale), Crabgrass, Large ([4]; Postemergence): 0 | Plant response rating (0 to 100 scale), Crabgrass, Large ([4]; Preemergence): 0 | Plant response rating (0 to 100 scale), Morningglory ([5]; Postemergence): 0 | Plant response rating (0 to 100 scale), Morningglory ([5]; Preemergence): 0 | Plant response rating (0 to 100 scale), Pigweed ([6]; Postemergence): 90 | Plant response rating (0 to 100 scale), Pigweed ([6]; Preemergence): 100 | Plant response rating (0 to 100 scale), Velvetleaf ([7]; Postemergence): 90 | Plant response rating (0 to 100 scale), Velvetleaf ([7]; Preemergence): 100 | Plant response rating (0 to 100 scale), Wheat ([8]; Postemergence): 0 | Plant response rating (0 to 100 scale), Wheat ([8]; Preemergence): 0 | Plant response rating (0 to 100), Ryegrass, Italian ([9]; 62 g ai/ha): 0 | Plant response rating (0 to 100), Ryegrass, Italian ([9]; 125 g ai/ha): 0 | Plant response rating, Ryegrass, Italian ([9]; 250 g ai/ha): 0 | Plant response rating, Ryegrass, Italian ([9]; 500 g ai/ha): 0 | Plant response rating (0 to 100), Corn ([10]; 62 g ai/ha): 0 | Plant response rating (0 to 100), Corn ([10]; 125 g ai/ha): 0 | Plant response rating, Corn ([10]; 250 g ai/ha): 5 | Plant response rating, Corn ([10]; 500 g ai/ha): 5 | Plant response rating (0 to 100), Pigweed ([11]; 62 g ai/ha): 85 | Plant response rating (0 to 100), Pigweed ([11]; 125 g ai/ha): 100 | Plant response rating, Pigweed ([11]; 250 g ai/ha): 100 | Plant response rating, Pigweed ([11]; 500 g ai/ha): 100 | Plant response rating (0 to 100), Ragweed ([12]; 62 g ai/ha): 15 | Plant response rating (0 to 100), Ragweed ([12]; 125 g ai/ha): 40 | Plant response rating, Ragweed ([12]; 250 g ai/ha): 50 | Plant response rating, Ragweed ([12]; 500 g ai/ha): 55 | Plant response rating (0 to 100), Velvetleaf ([13]; 62 g ai/ha): 60 | Plant response rating (0 to 100), Velvetleaf ([13]; 125 g ai/ha): 65 | Plant response rating, Velvetleaf ([13]; 250 g ai/ha): 70 | Plant response rating, Velvetleaf ([13]; 500 g ai/ha): 70
